According to patent US9434711B2 (Janssen Pharmaceutica, NV, priority 2007, dated 2016):

Target: canine TRPM8 (Canis lupus familiaris, UniProt Q1A7N1)
Assay: In Vitro Canine TRPM8 Functional Assay (Ca2+ fluorescence, icilin activation)
Assay type: cell-based
Details: for IC50: HEK293 cells stably expressing canine TRPM8, icilin activation, eight-point dose-response, read-out: IC50; for inhibition at 0.2 µM: compound at 0.2 μM, read-out: % Inh @ 0.2; for inhibition at 0.2 µM / inhibition at 0.5 µM: canine TRPM8, icilin activation; for inhibition at 0.5 µM: compound at 0.5 μM, read-out: % Inh @ 0.5
Procedure, shortened: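 Readout is the intracellular Ca2+ fluorescence change, measured by FLIPR or FDSS, in HEK293 cells stably expressing canine TRPM8. Potency (EC50 or IC50) is fitted from eight concentrations averaged over quadruplicate wells.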

Sequence of canine TRPM8 (Q1A7N1 1-1104): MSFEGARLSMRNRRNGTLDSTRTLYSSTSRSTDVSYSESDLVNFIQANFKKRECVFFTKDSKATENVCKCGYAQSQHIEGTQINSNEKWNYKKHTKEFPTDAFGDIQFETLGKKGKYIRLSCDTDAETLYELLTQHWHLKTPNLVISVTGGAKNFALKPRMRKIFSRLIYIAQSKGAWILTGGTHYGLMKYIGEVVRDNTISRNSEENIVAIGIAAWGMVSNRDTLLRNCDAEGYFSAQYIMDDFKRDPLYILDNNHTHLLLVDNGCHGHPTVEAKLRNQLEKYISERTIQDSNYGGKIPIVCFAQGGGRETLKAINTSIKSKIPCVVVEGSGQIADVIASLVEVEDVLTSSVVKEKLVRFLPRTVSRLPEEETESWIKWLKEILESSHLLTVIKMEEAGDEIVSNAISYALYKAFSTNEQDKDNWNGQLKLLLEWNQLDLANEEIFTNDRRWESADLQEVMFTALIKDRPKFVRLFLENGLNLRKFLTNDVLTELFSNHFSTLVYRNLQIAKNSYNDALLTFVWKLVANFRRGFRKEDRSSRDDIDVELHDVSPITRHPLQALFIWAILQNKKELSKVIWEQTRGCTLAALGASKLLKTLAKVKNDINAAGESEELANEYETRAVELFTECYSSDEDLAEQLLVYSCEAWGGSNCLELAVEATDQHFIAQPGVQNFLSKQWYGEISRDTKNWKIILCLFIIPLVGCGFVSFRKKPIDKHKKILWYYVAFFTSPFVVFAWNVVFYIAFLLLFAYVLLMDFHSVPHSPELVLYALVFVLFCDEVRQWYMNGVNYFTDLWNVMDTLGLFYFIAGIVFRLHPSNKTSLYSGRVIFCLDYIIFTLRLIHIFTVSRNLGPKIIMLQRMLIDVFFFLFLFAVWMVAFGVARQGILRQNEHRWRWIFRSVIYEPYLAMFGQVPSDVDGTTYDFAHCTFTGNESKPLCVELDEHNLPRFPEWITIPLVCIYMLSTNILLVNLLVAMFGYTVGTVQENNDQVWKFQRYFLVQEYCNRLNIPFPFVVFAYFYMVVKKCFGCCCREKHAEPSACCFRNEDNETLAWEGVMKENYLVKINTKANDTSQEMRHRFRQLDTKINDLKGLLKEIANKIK

Row | IC50 | inhibition at 0.2 µM | inhibition at 0.5 µM | SMILES
1 | 0.062 µM | 91% |  | COC(=O)c1ccccc1S(=O)(=O)N(Cc1ccc(F)c(C(F)(F)F)c1)c1cc2ccccc2s1 [Compound 139, N-(Benzo[b]thiophen-2-yl)-N-(4-fluoro-3-trifluoromethyl-benzyl)-2-carbomethoxy-benzenesulfonamide]
2 | 0.002 µM |  | 98% | O=S(=O)(c1ccccc1)N(Cc1ccc(F)cc1)c1sc2ccccc2c1Br [Compound 140, N-(3-Bromo-benzo[b]thiophen-2-yl)-N-(4-fluoro-benzyl)-benzenesulfonamide]
3 |  | 18% |  | COc1ccc2c(Br)c(N(Cc3ccc(F)c(F)c3)S(=O)(=O)c3cccnc3)sc2c1 [Compound 141, N-(3-Bromo-6-methoxy-benzo[b]thiophen-2-yl)-N-(3,4-difluoro-benzyl)-pyridin-3-yl-sulfonamide]
4 |  |  | 60% | COc1cccc2cc(N(Cc3ccc(F)c(F)c3)S(=O)(=O)c3ccccc3)sc12 [Compound 142, N-(3,4-Difluoro-benzyl)-N-(7-methoxy-benzo[b]thiophen-2-yl)-benzenesulfonamide]
5 |  |  | 48% | COc1cccc2c(Cl)c(N(Cc3ccc(F)c(F)c3)S(=O)(=O)c3ccccc3)sc12 [Compound 143, N-(3-Chloro-7-methoxy-benzo[b]thiophen-2-yl)-N-(3,4-difluoro-benzyl)-benzenesulfonamide]
6 |  |  | 62% | COc1c(Cl)ccc2c(Cl)c(N(Cc3ccc(F)c(F)c3)S(=O)(=O)c3ccccc3)sc12 [Compound 144, N-(3,6-Dichloro-7-methoxy-benzo[b]thiophen-2-yl)-N-(3,4-difluoro-benzyl)-benzenesulfonamide]
7 | 0.0782 µM |  | 96% | O=S(=O)(c1ccccc1)N(Cc1ccc(F)c(F)c1)c1cc2cccnc2s1 [Compound 147, N-(3,4-Difluoro-benzyl)-N-thieno[2,3-b]pyridin-2-yl-benzenesulfonamide]
8 | 0.0154 µM |  | 100% | Cn1cnc(S(=O)(=O)N(Cc2ccc(F)c(F)c2)c2sc3ccccc3c2Br)c1 [Compound 150, N-(3-Bromo-benzo[b]thiophen-2-yl)-N-(3,4-difluoro-benzyl)-1-methyl-1H-imidazole-4-sulfonamide]
9 | 0.0167 µM |  | 96% | CS(=O)(=O)N(Cc1ccc(F)c(F)c1)c1sc2ccccc2c1Br [Compound 151, N-(3-Bromo-benzo[b]thiophen-2-yl)-N-(3,4-difluoro-benzyl)-methanesulfonamide]
10 | 0.0026 µM |  | 95% | CCS(=O)(=O)N(Cc1ccc(F)c(F)c1)c1sc2ccccc2c1Br [Compound 152, N-(3-Bromo-benzo[b]thiophen-2-yl)-N-(3,4-difluoro-benzyl)-ethanesulfonamide]
11 | 0.0188 µM |  | 97% | CCCS(=O)(=O)N(Cc1ccc(F)c(F)c1)c1sc2ccccc2c1Br [Compound 153, N-(3-Bromo-benzo[b]thiophen-2-yl)-N-(3,4-difluoro-benzyl)-propane-1-sulfonamide]
12 | 0.0362 µM |  | 96% | CCCCS(=O)(=O)N(Cc1ccc(F)c(F)c1)c1sc2ccccc2c1Br [Compound 154, N-(3-Bromo-benzo[b]thiophen-2-yl)-N-(3,4-difluoro-benzyl)-butane-1-sulfonamide]
13 | 0.004 µM |  | 99% | O=S(=O)(c1cccc(F)c1)N(Cc1ccc(F)c(F)c1)c1sc2ccccc2c1Br [Compound 155, N-(3-Bromo-benzo[b]thiophen-2-yl)-N-(3,4-difluoro-benzyl)-3-fluoro-benzenesulfonamide]
14 |  |  | 65% | O=S(=O)(c1ccc(C(F)(F)F)cc1)N(Cc1ccc(F)c(F)c1)c1sc2ccccc2c1Br [Compound 156, N-(3-Bromo-benzo[b]thiophen-2-yl)-N-(3,4-difluoro-benzyl)-4-trifluoromethyl-benzenesulfonamide]
15 | 0.014 µM | 100% |  | CS(=O)(=O)N(Cc1ccc(F)c(C(F)(F)F)c1)c1sc2ccccc2c1Br [Compound 157, N-(3-Bromo-benzo[b]thiophen-2-yl)-N-(4-fluoro-3-trifluoromethyl-benzyl)-methanesulfonamide]
16 | 0.0104 µM |  | 94% | O=S(=O)(c1ccccc1)N(Cc1ccc(Cl)cc1)c1sc2ccccc2c1Cl [Compound 158, N-(3-Chloro-benzo[b]thiophen-2-yl)-N-(4-chloro-benzyl)-benzenesulfonamide]
17 | 0.0134 µM |  | 98% | O=S(=O)(c1ccccc1)N(Cc1ccc(Cl)cc1)c1sc2ccccc2c1Br [Compound 159, N-(3-Bromo-benzo[b]thiophen-2-yl)-N-(4-chloro-benzyl)-benzenesulfonamide]
18 | 0.0358 µM |  | 97% | COc1ccccc1CN(c1sc2ccccc2c1Br)S(=O)(=O)c1ccccc1 [Compound 160, N-(3-Bromo-benzo[b]thiophen-2-yl)-N-(2-methoxy-benzyl)-benzenesulfonamide]

Row | IC50 | inhibition at 0.2 µM | inhibition at 0.5 µM | SMILES
19 | 0.0554 µM |  | 95% | COc1ccc(Br)cc1CN(c1sc2ccccc2c1Br)S(=O)(=O)c1ccccc1 [Compound 161, N-(3-Bromo-benzo[b]thiophen-2-yl)-N-(5-bromo-2-methoxy-benzyl)-benzenesulfonamide]
20 | 0.0045 µM |  | 101% | COc1cccc(CN(c2sc3ccccc3c2Br)S(=O)(=O)c2ccccc2)c1 [Compound 162, N-(3-Bromo-benzo[b]thiophen-2-yl)-N-(3-methoxy-benzyl)-benzenesulfonamide]
21 | 0.0639 µM |  | 92% | COc1ccc(Br)c(CN(c2sc3ccccc3c2Br)S(=O)(=O)c2ccccc2)c1 [Compound 163, N-(3-Bromo-benzo[b]thiophen-2-yl)-N-(2-bromo-5-methoxy-benzyl)-benzenesulfonamide]
22 | 0.0319 µM |  | 97% | COc1ccc(CN(c2sc3ccccc3c2Br)S(=O)(=O)c2ccccc2)cc1 [Compound 164, N-(3-Bromo-benzo[b]thiophen-2-yl)-N-(4-methoxy-benzyl)-benzenesulfonamide]
23 | 0.0037 µM |  | 98% | COc1ccc(CN(c2sc3ccccc3c2Br)S(=O)(=O)c2ccccc2)cc1Br [Compound 165, N-(3-Bromo-benzo[b]thiophen-2-yl)-N-(3-bromo-4-methoxy-benzyl)-benzenesulfonamide]
24 | 0.0114 µM |  | 94% | O=S(=O)(c1ccccc1)N(Cc1ccccc1F)c1sc2ccccc2c1Br [Compound 166, N-(3-Bromo-benzo[b]thiophen-2-yl)-N-(2-fluoro-benzyl)-benzenesulfonamide]
25 |  |  | 101% | O=[N+]([O-])c1cccc(CN(c2sc3ccccc3c2Br)S(=O)(=O)c2ccccc2)c1 [Compound 167, N-(3-Bromo-benzo[b]thiophen-2-yl)-N-(3-nitro-benzyl)-benzenesulfonamide]
26 | 0.0214 µM |  | 98% | O=S(=O)(c1ccccc1)N(Cc1cccnc1)c1sc2ccccc2c1Br [Compound 169, N-(3-Bromo-benzo[b]thiophen-2-yl)-N-(pyridin-3-ylmethyl)-benzenesulfonamide]
27 | 0.0445 µM |  | 97% | O=S(=O)(c1ccccc1)N(Cc1ccncc1)c1sc2ccccc2c1Br [Compound 170, N-(3-Bromo-benzo[b]thiophen-2-yl)-N-(pyridin-4-ylmethyl)-benzenesulfonamide]
28 | 0.0193 µM |  | 100% | O=[N+]([O-])c1ccccc1CN(c1sc2ccccc2c1Br)S(=O)(=O)c1ccccc1 [Compound 171, N-(3-Bromo-benzo[b]thiophen-2-yl)-N-(2-nitro-benzyl)-benzenesulfonamide]
29 | 0.0111 µM |  | 98% | O=S(=O)(c1ccccc1)N(Cc1ccccc1OC(F)(F)F)c1sc2ccccc2c1Br [Compound 172, N-(3-Bromo-benzo[b]thiophen-2-yl)-N-(2-trifluoromethoxy-benzyl)-benzenesulfonamide]
30 | 0.0084 µM |  | 99% | O=S(=O)(c1ccccc1)N(Cc1cccc(OC(F)(F)F)c1)c1sc2ccccc2c1Br [Compound 173, N-(3-Bromo-benzo[b]thiophen-2-yl)-N-(3-trifluoromethoxy-benzyl)-benzenesulfonamide]
31 | 0.0046 µM |  | 97% | O=S(=O)(c1ccccc1)N(Cc1ccccc1)c1sc2ccccc2c1Br [Compound 175, N-(Benzyl)-N-(3-bromo-benzo[b]thiophen-2-yl)-benzenesulfonamide]
32 | 0.0028 µM |  | 97% | COc1cc(CN(c2sc3ccccc3c2Br)S(=O)(=O)c2ccccc2)ccc1F [Compound 176, N-(3-Bromo-benzo[b]thiophen-2-yl)-N-(4-fluoro-3-methoxy-benzyl)-benzenesulfonamide]
33 | 0.0355 µM |  | 96% | Cc1ccccc1CN(c1sc2ccccc2c1Br)S(=O)(=O)c1ccccc1 [Compound 178, N-(3-Bromo-benzo[b]thiophen-2-yl)-N-(2-methyl-benzyl)-benzenesulfonamide]
34 | 0.0036 µM |  | 98% | Cc1cccc(CN(c2sc3ccccc3c2Br)S(=O)(=O)c2ccccc2)c1 [Compound 179, N-(3-Bromo-benzo[b]thiophen-2-yl)-N-(3-methyl-benzyl)-benzenesulfonamide]
35 | 0.043 µM | 96% |  | COc1cccc(S(=O)(=O)N(Cc2ccc(F)c(C(F)(F)F)c2)c2sc3ccccc3c2Cl)c1 [Compound 180, N-(3-Chloro-benzo[b]thiophen-2-yl)-N-(4-fluoro-3-trifluoromethyl-benzyl)-3-methoxy-benzenesulfonamide]
36 | 0.084 µM | 95% |  | COc1ccc(S(=O)(=O)N(Cc2ccc(F)c(C(F)(F)F)c2)c2sc3ccccc3c2Cl)cc1 [Compound 181, N-(3-Chloro-benzo[b]thiophen-2-yl)-N-(4-fluoro-3-trifluoromethyl-benzyl)-4-methoxy-benzenesulfonamide]
